Source: US8252912B2, “Transcriptional repression of sodium-iodide symporter in thyroid carcinoma” (University of Kentucky Research Foundation, priority 2007, dated 2012)

How the values were obtained:
[1] = test system: human NIS promoter region (Luc-1/pGL3-basic) in KAK-1 cells; assay: Transient transfection luciferase reporter assay, Luc-1/pGL3-basic (hNIS promoter -1667 to -348 bp) in KAK-1 cells, protein synthesis inhibitors; assay type: cell-based; conditions: 2 days, Anisomycin at 0.4, 1 μg/ml, Emetine at 1, 2 μg/ml, Puromycin up to highest concentration used (1 μg/ml)
Method: The pGL3-basic plasmid, together with phRG-B plasmid (as transfection efficiency control) and pUC-18 (as carrier) were transiently transfected into KAK-1 cells cultured under basal conditions supplemented with 0.01% DMSO (as solvent control), Anisomycin (0.1, 0.4, 1 μg/ml), Emetine (0.5, 1, 2 μg/ml) and Puromycin (0.1, 0.4, 1 μg/ml) respectively for 2 days. The cells were then lysed and firefly luciferase activity and Renilla luciferase activity were quantitated using a luminometer (FIG. 3).
Luc-1/pGL3-basic reporter construct (Luc-1) was prepared containing the promoter region of the human sodium/iodide symporter gene (see Venkataraman et al. 1998 Thyroid 8:63-69 and U.S. Pat. No. 6,015,376; Genebank Accession Number: AF059566) from −1667 to −348 bp (FIG. 2) inserted into pGL3-basic luciferase vector at KpnI and HindIII site upstream of the luciferase coding sequence. The Luc-1/pGL3-basic construct, together with phRG-B plasmid (as transfection efficiency control) and pUC-18 (as carrier) were transiently transfected into KAK-1 cells cultured under basal conditions supplemented with 0.01% DMSO (as solvent control), Anisomycin (0.1, 0.4, 1 μg/ml), Emetine (0.5, 1, 2 μg/ml) and Puromycin (0.1, 0.4, 1 μg/ml) respectively for 2 days. The cells were then lysed and firefly luciferase activity and Renilla luciferase activity were quantitated using luminometer (FIG. 4).

[2] = test system: factor(s) in KAK-1 nuclear extract binding to Probe A (NIS-repressor); assay: EMSA competition of cold double-stranded oligonucleotides against radiolabeled Probe A with KAK-1 nuclear extract; set-up: species or system human; conditions: excess (60×) cold competitor
Method: Nuclear extracts were prepared using the NucBuster Protein Extraction kit from Novagen/EMD Biosciences, Inc. (La Jolla, Calif.) following its instructions. The radioactive EMSA probes were end-labeled using T4 polynucleotide kinase in the presence of γ-P^32-ATP (GE Healthcare Bio-Sciences Corp., Piscataway, N.J.), followed by removal of the free radioactive ATP with the QIAquick Nucleotide Removal Kit from Qiagen (Valencia, Calif.). EMSA reaction was performed using the EMSA Accessory Kit (Novagen) following its instructions. Briefly, 1 μL 10 mM DTT, 5 μL 4×EMSA buffer, 1 μL Salmon sperm DNA and 1 μL poly dI:dC were mixed with 3 μL nuclear extracts, 1 μL radioactive EMSA probe and water to make up to 18 μL. In some reactions, antibodies or cold competitive probes were added. The mixtures were incubated on ice for 30 min, Then 2 μL loading dye were added to each reaction tubes, and the samples were loaded onto 7.5% PAGE/0.5×TBE, and run overnight. The gel was dried, exposed to X-ray films that were developed 2-3 days later. The competitive EMSA probes were prepared by annealing the sense and anti-sense single strand synthetic oligos respectively, which are listed in Table 2.

hNIS mRNA in KAK-1 cells = assay: qRT-PCR assay of hNIS mRNA levels after treatments in KAK-1 cells; assay type: cell-based, human; conditions: for Relative hNIS mRNA level: relative to control = 1 (4 copies/10^9 18s RNA), azaC 0.5 μM, NaB 1 mM, CHX 10 μg/ml, 3-AB 7.5 mM, PJ34 30 μmole/liter; for Stimulation of hNIS mRNA transcription (in words): qRT-PCR
Method: The basal media and supplements were all from GIBCO/Invitrogen Corporation, Grand Island, N.Y. All thyroid cell lines were grown in phenol red-free RPMI 1640 (GIBCO) with 10% FBS, 100 nmol/L sodium selenite, and 0.1 nmol/L bovine TSH (Sigma) at 37° C. in 5% CO2. KAK-1 cells were also cultured in high-glucose, phenol red-free RPMI 1640 supplemented with 10% FBS, 100 nM sodium selenite, 5 pIU/ml human TSH, 0.1 mM non-essential amino acids, 1 mM sodium pyruvate at 37° C. in 5% CO2. Cell culture media was replenished every 2 days. All chemical reagents were obtained from Sigma Chemical Company (St. Louis, Mo.). In addition, PJ34 was obtained from CalBiochem/EMD Biosciences, Inc. (La Jolla, Calif.) and used at 30 μmole/liter. Cycloheximide (CHX), 3-aminobenzamide (3-AB), 5-azacytidine (azaC), and sodium butyrate (NaB) were from Sigma-Aldrich Chemical Company (St. Louis, Mo.) and used at 10 μg/ml, 7.5 mM, 0.5 μM, 1 mM respectively.
Total RNA was isolated using TRIzol reagent (Invitrogen Corp., Carlsbad, Calif.), genomic DNA contamination removed using DNA-free kit (Ambion Inc., Austin, Tex.), and cDNA synthesized from 2 μg total RNA using Advantage RT-for-PCR kit (BD Biosciences Clontech, Palo Alto, Calif.) with random hexamer primers. TaqMan Universal PCR Master Mix (Applied Biosystems, Foster City, Calif.) and Assay-on-Demand Gene Expression Products (Hs00166567_m1 for hNIS mRNA and Hs999999-1_s1 for 18sRNA, respectively; Applied Biosystems) were used for RNA quantitation. The hNIS fragment (1446-1865, +1 is translation initiation codon “A”) was PCR amplified using NIS-F (5′-ctgcgtggctctctcagtc-3′ SEQ ID NO:6) and NIS-R (5′-ccctccagctccttctgc-3′ SEQ ID NO:7), followed by ligation into pCR2.1 vector (Invitrogen). The same procedure was followed using 18s-F (5′-atggtgaccacgggtgacg-3′ SEQ ID NO:8) and 18s-R (5′-[…]-3′ SEQ ID NO:9) for 18s qPCR standard. DNA preparations of these two plasmids were quantitated, diluted and used as quantitation standards in qPCR measurements.
The qRT-PCR assay was used to measure hNIS mRNA levels after different treatments in KAK-1 cells.

[3] = test system: hNIS promoter in KAK-1 cells; assay: Luciferase reporter assay with pGL3-basic, F4-pGL3-basic and F4Δ-pGL3-basic constructs in KAK-1 cells, PJ34 treatment; assay type: cell-based, human; conditions: PJ34 at 30 μM for 2 days, pGL3-basic, F4-pGL3-basic, F4Δ-pGL3-basic, p<0.05, t-test
Method: For the transient transfection assays to monitor the effects of PJ34, PJ34 was administered at 30 μM one hour before DNA transfection mixtures were added to the KAK-1 cultures. Twenty-four hours later, transfection mixtures were replaced with fresh media containing PJ34. Luciferase and Rennilar activities were determined 24 hr later. Luciferase activity was normalized to Rennilar activity to account for the variations in transfection efficiency. Triplicate transfections were performed and data were presented as mean±SD.
PJ34 is a potent inhibitor for PARP-1. Its effect on hNIS transcription was determined using luciferase reporter assay with pGL3-basic, F4-pGL3-basic (containing hNIS promoter from −1252 to −348 bp) and F4Δ-pGL3-basic constructs (the same as F4-pGL3-basic but with deletion of sequence from −667 to −588 bp, encompassing R—NRBS).

[4] = test system: factors in KAK-1 nuclear extract binding to NRBS (Probe A); assay: EMSA with radiolabeled Probe A and nuclear extract from treated KAK-1 cells; assay type: cell-based, human; conditions: nuclear extract from KAK-1 cells treated with azaC 0.5 μM, sodium butyrate 1 mM, CHX 10 μg/ml or combinations
Method: Electrophoretic mobility shift assay was performed using radio-labeled NRBS (−684 to −565) oligonucleotides as a probe and nuclear extracts from KAK-1 cells cultured under basal conditions (not expressing hNIS mRNA), as well as with azaC/NaB and azaC/CHX treatments (shown in FIG. 8 on far left).

`COc1ccc(C[C@H](N)C(=O)N[C@H]2[C@@H](O)[C@H](n3cnc4c(N(C)C)ncnc43)O[C@@H]2CO)cc1` [Puromycin] was tested, and the “Normalized luciferase activity driven by human NIS promoter region (Luc-1/pGL3-basic), compared with pGL3-basic vector” value [1] was “did not stimulate the luciferase activity much”.

In the case of “Comp-1.4: double-stranded competitive EMSA probe, −638 to −615 of hNIS promoter, Seq ID No:83/84 (chain 1 CAATTTCCCCACCTGTCAACAGCA; chain 2 TGCTGTTGACAGGTGGGGGAAATTG; chemistry not given here)”, the “Competition against radiolabeled Probe A in EMSA (gel-shift signal)” value (“Competition … (gel-shift signal)” for short) [2] is reported as “fail to compete against the radiolabeled Probe A”.

With `C[C@@H]1C[C@@H]([C@H](O)CC2CC(=O)NC(=O)C2)C(=O)[C@@H](C)C1` [CHX, Cycloheximide] the “Relative hNIS mRNA level” value (hNIS mRNA in KAK-1 cells) was 4.

“Comp-1.2: double-stranded competitive EMSA probe, −648 to −625 of hNIS promoter, Seq ID No:79/80 (chain 1 TTTTGAGCCTCAATTTCCCCACCT; chain 2 AGGTGGGGAAATTGAGGCTCAAAA; chemistry not given here)” was tested, and the “Competition … (gel-shift signal)” value [2] was “effectively competed against the radiolabeled Probe A”.

With `CN(C)CC(=O)Nc1ccc2[nH]c(=O)c3ccccc3c2c1` [PJ34] the “Stimulation of hNIS mRNA transcription (in words)” value (hNIS mRNA in KAK-1 cells) was “stimulate hNIS mRNA more than CHX alone”, the “Relative hNIS mRNA level” value (hNIS mRNA in KAK-1 cells) was 26 and the “Normalized luciferase activity with versus without PJ34 treatment” value [3] was “stimulated luciferase activity from all the constructs”.

In the case of `Nc1ncn([C@@H]2O[C@H](CO)[C@@H](O)[C@H]2O)c(=O)n1` [azaC, 5-azacytidine], the “Effect of cell treatment on EMSA gel shift pattern (Probe A)” value [4] is reported as “gel shift pattern remained the same” and the “Relative hNIS mRNA level” value (hNIS mRNA in KAK-1 cells) is reported as 5.

For `CC[C@H]1CN2CCc3cc(OC)c(OC)cc3[C@@H]2C[C@@H]1C[C@H]1NCCc2cc(OC)c(OC)cc21` [Emetine], the “Normalized luciferase activity driven by human NIS promoter region (Luc-1/pGL3-basic), compared with pGL3-basic vector” value [1] was “dramatically stimulated the normalized luciferase activity”.

`COc1ccc(C[C@H]2NC[C@H](O)[C@H]2OC(C)=O)cc1` [Anisomycin] was tested, and the “Normalized luciferase activity driven by human NIS promoter region (Luc-1/pGL3-basic), compared with pGL3-basic vector” value [1] was “dramatically stimulated the normalized luciferase activity”.

“Comp-1.1: double-stranded competitive EMSA probe, −653 to −630 of hNIS promoter, Seq ID No:77/78 (chain 1 GCCCTTTTTGAGCCTCAATTTCCC; chain 2 GGGAAATTGAGGCTCAAAAAGGGC; chemistry not given here)” was tested, and the “Competition … (gel-shift signal)” value [2] was “fail to compete against the radiolabeled Probe A”.

With “Comp-1.3: double-stranded competitive EMSA probe, −643 to −620 of hNIS promoter, Seq ID No:81/82 (chain 1 AGCCTCAATTTCCCCACCTGTCAA; chain 2 TTGACAGGTGGGGAAATTGAGGCT; chemistry not given here)” the “Competition … (gel-shift signal)” value [2] was “effectively competed against the radiolabeled Probe A”.

`NC(=O)c1cccc(N)c1` [3-AB, 3-aminobenzamide] was tested, and the “Stimulation of hNIS mRNA transcription (in words)” value (hNIS mRNA in KAK-1 cells) was “not effective in stimulating hNIS mRNA transcription” and the “Relative hNIS mRNA level” value (hNIS mRNA in KAK-1 cells) was 1.

B1: Comp-0.9: double-stranded competitive EMSA probe, −660 to −627 of hNIS promoter, Seq ID No:73/74 (nucleic acid)
chain 1: GTGACATGCCCTTTTTGAGCCTCAATTTCCCCAC
chain 2: GTGGGGAAATTGAGGCTCAAAAAGGGCATGTCAC
modifications: chemistry not given here
In the case of B1, the “Competition … (gel-shift signal)” value [2] is reported as “fail to compete against the radiolabeled Probe A”.

B2: Comp-2: double-stranded competitive EMSA probe, −633 to −595 of hNIS promoter, Seq ID No:85/86 (nucleic acid)
chain 1: TCCCCACCTGTCAACAGCAGACAGTGACAGCTGTGATCA
chain 2: TGATCACAGCTGTCACTGTCTGCTGTTGACAGGTGGGGA
modifications: chemistry not given here
With B2 the “Competition … (gel-shift signal)” value [2] was “fail to compete against the radiolabeled Probe A”.

B3: Comp-1: double-stranded competitive EMSA probe, −653 to −615 of hNIS promoter, Seq ID No:75/76 (nucleic acid)
chain 1: GCCCTTTTTGAGCCTCAATTTCCCCACCTGTCAACAGCA
chain 2: TGCTGTTGACAGGTGGGGAAATTGAGGCTCAAAAAGGGC
modifications: chemistry not given here
B3 was tested, and the “Competition … (gel-shift signal)” value [2] was “completely erased the characteristic gel-shift signal”.
